The record followed here is patent US12398151B2, “Sumo inhibitor compounds and uses thereof” (SUVALENT THERAPEUTICS, INC., priority 2019, dated 2025).

In test [1] the target is T1, SUMO E1 (Homo sapiens, UniProt Q9UBT2).
T1 sequence (Q9UBT2 1-640): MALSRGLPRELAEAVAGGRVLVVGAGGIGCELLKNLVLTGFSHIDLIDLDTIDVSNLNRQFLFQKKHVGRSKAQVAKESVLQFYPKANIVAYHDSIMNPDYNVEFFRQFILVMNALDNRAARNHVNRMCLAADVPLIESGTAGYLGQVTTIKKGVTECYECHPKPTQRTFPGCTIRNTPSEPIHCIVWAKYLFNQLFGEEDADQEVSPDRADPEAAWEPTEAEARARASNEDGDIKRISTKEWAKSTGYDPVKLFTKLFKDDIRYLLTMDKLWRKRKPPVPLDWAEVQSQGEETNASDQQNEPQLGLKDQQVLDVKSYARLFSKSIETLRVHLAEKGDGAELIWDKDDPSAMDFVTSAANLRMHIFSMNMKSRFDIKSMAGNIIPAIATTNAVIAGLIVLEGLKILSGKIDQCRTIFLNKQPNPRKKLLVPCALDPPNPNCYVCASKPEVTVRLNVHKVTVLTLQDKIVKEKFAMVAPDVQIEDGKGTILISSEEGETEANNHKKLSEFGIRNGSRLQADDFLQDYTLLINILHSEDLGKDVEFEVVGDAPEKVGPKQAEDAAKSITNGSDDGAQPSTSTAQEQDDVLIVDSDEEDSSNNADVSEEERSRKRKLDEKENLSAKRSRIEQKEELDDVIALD
T1 sequence (Q9UBE0 1-346 partner): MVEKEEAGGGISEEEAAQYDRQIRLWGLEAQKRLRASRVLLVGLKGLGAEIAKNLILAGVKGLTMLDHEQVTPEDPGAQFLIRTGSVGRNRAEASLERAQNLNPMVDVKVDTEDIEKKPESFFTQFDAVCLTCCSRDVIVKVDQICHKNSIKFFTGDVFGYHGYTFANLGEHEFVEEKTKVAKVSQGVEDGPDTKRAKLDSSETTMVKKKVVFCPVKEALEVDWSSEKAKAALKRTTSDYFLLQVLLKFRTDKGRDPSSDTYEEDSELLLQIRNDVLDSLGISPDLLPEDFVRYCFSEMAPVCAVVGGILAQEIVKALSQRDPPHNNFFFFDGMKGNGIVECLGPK
Kind of test: SUMO E1 inhibition: UBC9-SUMO1 conjugation by SDS gel electrophoresis. The test is classed as biochemical. The following applies: for inhibition at 25 µM / SUMO E1 percent inhibition of adduct formation: 25 uM compound; for inhibition at 25 µM / inhibition at 10 µM / SUMO E1 percent inhibition of adduct formation: 60 min preincubation; for inhibition at 10 µM: 10 uM compound; for SUMO E1 percent inhibition of adduct formation: 25 µM. Here is the method: (§1) Compounds are evaluated for their inhibitory effect on activating enzymes (E1) of ubiquitin, SUMO, Nedd8, Urm1, ISG15 or Atg7 using previously reported methods and protocols. One example is in: Allosteric inhibition of ubiquitin-like modifications by a class of inhibitor of SUMO-activating enzyme. Cell Chemical Biology, 26, 1-11, 2019. PMID: 28051857.
(§2) Compounds are tested in the following manner. The compound and SUMO E1 are incubated for a predetermined amount of time. UBC9, SUMO1, and ATP are added to the E1-compound mixture and incubated at 37° C. The reaction is quenched with Laemmli Buffer. The UBC9-SUMO1 conjugation is analyzed via SDS gel electrophoresis. The percent inhibition is measured by the intensity of the UBC9-SUMO1 band compared to the no compound control. Activities are listed as compound concentration (uM), preincubation time of E1 with compound (min), and percent inhibition of adduct formation (%). […]

Test [2] has as its target T2, Atg7 (Homo sapiens, UniProt O95352).
T2 sequence (O95352 1-703): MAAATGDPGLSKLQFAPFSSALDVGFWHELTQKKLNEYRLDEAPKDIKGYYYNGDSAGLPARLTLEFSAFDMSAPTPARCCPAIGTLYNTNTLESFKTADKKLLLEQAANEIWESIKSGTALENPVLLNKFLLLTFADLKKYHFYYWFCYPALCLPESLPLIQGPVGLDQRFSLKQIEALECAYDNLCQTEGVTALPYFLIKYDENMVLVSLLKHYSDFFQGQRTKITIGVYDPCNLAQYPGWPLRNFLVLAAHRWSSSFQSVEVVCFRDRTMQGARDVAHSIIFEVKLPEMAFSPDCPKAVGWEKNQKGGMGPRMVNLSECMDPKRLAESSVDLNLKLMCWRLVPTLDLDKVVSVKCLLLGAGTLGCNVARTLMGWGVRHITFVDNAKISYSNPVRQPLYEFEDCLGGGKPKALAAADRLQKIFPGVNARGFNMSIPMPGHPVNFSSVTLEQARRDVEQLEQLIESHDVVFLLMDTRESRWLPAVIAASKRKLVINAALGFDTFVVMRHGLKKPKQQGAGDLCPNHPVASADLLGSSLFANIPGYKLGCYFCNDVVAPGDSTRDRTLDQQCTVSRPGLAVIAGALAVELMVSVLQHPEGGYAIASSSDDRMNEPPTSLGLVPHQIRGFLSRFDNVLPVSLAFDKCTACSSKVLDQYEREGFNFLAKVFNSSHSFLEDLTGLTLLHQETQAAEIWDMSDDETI
The test can be described thus: Atg7 activating enzyme (E1) inhibition. Particulars: 25 uM compound, 60 min preincubation; for inhibition at 25 µM: read-out: Atg7 percent inhibition of adduct formation. The class given is biochemical. As to the method:
as §1, §2

Setting [3] is: read-out: SUMO E1 percent inhibition of adduct formation.

As for `C=CC(=O)N1Cc2ccc(Oc3cccnc3)cc2[C@@H](c2ccccc2)C1` [Compound 31], the inhibition at 25 µM in test [1] (setting [3]) and in test [2] was less than 1% each time.

In the case of `C=CC(=O)N1Cc2ccccc2[C@@H](C(=O)Nc2ccccc2)C1` [Compound 32], the inhibition at 25 µM in test [1] (setting [3]) and in test [2] was less than 1% in each case.

Turning to `C=CC(=O)N1Cc2cc(OC)ccc2[C@@H](c2ccc(Cl)cc2)C1` [Compound 34], the inhibition at 25 µM in test [1] (setting [3]) and in test [2] was less than 1% in each case.

In the case of `C=CC(=O)N1Cc2ccccc2[C@@H](c2cccc(OC)c2)C1` [Compound 35], the inhibition at 25 µM in test [1] (setting [3]) and in test [2] was less than 1% throughout.

On to `C=CC(=O)N1Cc2cc(OCC)ccc2[C@@H](c2ccccc2)C1` [Compound 36], for which the inhibition (usually the share of the control response that was lost under treatment) at 25 µM is 40% in test [1] (setting [3]) and less than 1% in test [2].

As to `COC(=O)/C=C/C(=O)N1Cc2ccccc2[C@@H](c2ccccc2)C1` [Compound 37], the values for the inhibition at 25 µM in test [1] (setting [3]) and in test [2] were 40% and less than 1%, respectively.

As for `C=CC(=O)N1Cc2ccc(-c3ccccc3)cc2[C@@H](c2ccccc2)C1` [Compound 38], the inhibition at 25 µM in test [1] (setting [3]) and in test [2] was less than 1% each time.

For `C=CC(=O)N1Cc2ccc(C(C)C)cc2[C@@H](c2ccccc2)C1` [Compound 39], the inhibition at 25 µM in test [1] (setting [3]) and in test [2] was less than 1% throughout.

For `C=CC(=O)N1Cc2ccc(CCO)cc2[C@@H](c2ccccc2)C1` [Compound 40], the inhibition at 25 µM in test [1] (setting [3]) and in test [2] was less than 1% in each case.

As for `C=CC(=O)N1Cc2ccc(CC)cc2[C@@H](c2ccccc2)C1` [Compound 41], the inhibition at 25 µM in test [1] (setting [3]) and in test [2] was less than 1% each time.

Consider `C=CC(=O)N1Cc2cc(OC)ccc2[C@@H](c2ccccc2)C1` [Compound 42], for which the inhibition at 25 µM in test [1] (setting [3]) and in test [2] was less than 1% in each case.

Consider `C=CC(=O)N1Cc2ccccc2[C@@H](c2c(F)cccc2F)C1` [Compound 43], for which the inhibition at 25 µM in test [1] (setting [3]) and in test [2] was less than 1% each time.

`C=CC(=O)N1Cc2ccccc2[C@@H](c2cccc(O)c2)C1` [Compound 45]: the inhibition at 25 µM in test [1] (setting [3]) and in test [2] was less than 1% in each case.

In the case of `C=CC(=O)N1Cc2ccc(Br)cc2[C@@H](c2ccccc2Cl)C1` [Compound 46], in test [1] (9 uM compound, 30 min preincubation, read-out: SUMO E1 percent inhibition of adduct formation), the inhibition at 9 µM is 50%. Further, the inhibition at 25 µM in test [2] is less than 1%.

As to `C=CC(=O)N1Cc2c(C)cc(Br)cc2[C@@H](c2ccccc2)C1` [Compound 47], the inhibition at 25 µM in test [1] (setting [3]) and in test [2] was less than 1% throughout.

Take `C=CC(=O)N1Cc2cc(OCC(C)C)ccc2[C@@H](c2ccccc2)C1` [Compound 48]: the results for the inhibition at 25 µM in test [1] (setting [3]) and in test [2] were 30% and less than 1%, respectively.

As to `C=CC(=O)N1Cc2cc(OCc3ccccc3)ccc2[C@@H](c2ccccc2)C1` [Compound 49], the inhibition at 25 µM in test [1] (setting [3]) and in test [2] was less than 1% each time.

In the case of `C=CC(=O)Nc1cccc([C@H]2CN(C(=O)C=C)Cc3ccccc32)c1` [Compound 52], the inhibition at 25 µM in test [1] (setting [3]) was 50%; in test [2], less than 1%.

Consider `C=CC(=O)N1CCc2cc(Oc3cccc(C)c3)ccc2C1` [Compound 53], for which the inhibition at 25 µM in test [1] (setting [3]) and in test [2] was less than 1% in each case.

For `C=CC(=O)N1CCc2cc(Oc3cccnc3)ccc2C1` [Compound 54], the inhibition at 25 µM in test [1] (setting [3]) is 10%; in test [2], less than 1%.

`C=CC(=O)N1Cc2ccc(Br)cc2[C@@H](c2ccccc2Br)C1` [Compound 55]: the inhibition at 25 µM in test [1] (setting [3]) is 50%; in test [2] it was less than 1%.

On to `C=CC(=O)N1Cc2ccc(Br)cc2[C@@H](c2c(Cl)cccc2Cl)C1` [Compound 56], for which the inhibition at 25 µM in test [1] (setting [3]) and in test [2] was less than 1% throughout.

`C=CC(=O)N1Cc2ccc(Br)cc2[C@@H](c2ccccc2C(F)(F)F)C1` [Compound 57]: the inhibition at 25 µM in test [1] (setting [3]) was 90%; in test [2], less than 1%.

On to `C=CC(=O)N1Cc2ccc(Br)cc2[C@@H](c2ccccc2C)C1` [Compound 58], for which the values for the inhibition at 25 µM in test [1] (setting [3]) and in test [2] were 95% and less than 1%, respectively.

Regarding `C=CC(=O)N1Cc2ccccc2[C@@](C)(c2ccccc2)C1` [Compound 59], the figures for the inhibition at 25 µM in test [1] (setting [3]) and in test [2] were 40% and less than 1%, respectively.

On to `C=CC(=O)N1Cc2ccc(OC)cc2[C@@H](c2ccccc2)C1` [Compound 60], for which the figures for the inhibition at 25 µM in test [1] (setting [3]) and in test [2] were 40% and less than 1%, respectively.

Consider `C=CC(=O)N1Cc2cc(Br)ccc2[C@@H](c2ccccc2)C1` [Compound 61], for which the inhibition at 10 µM in test [1] (setting [3]) worked out at 100%. Also, in test [2], the inhibition at 25 µM was less than 1%.

In the case of `C=CC(=O)N1Cc2cccc(Br)c2[C@@H](c2ccccc2)C1` [Compound 62], the inhibition at 25 µM in test [1] (setting [3]) is 5%; in test [2], less than 1%.

Consider `C=CC(=O)N1Cc2ccc(Cl)cc2[C@@H](c2ccccc2)C1` [Compound 63], for which the inhibition at 10 µM in test [1] (setting [3]) was 50%. Besides, in test [2], the inhibition at 25 µM is less than 1%.

For `C=CC(=O)N1Cc2cc(Cl)ccc2[C@@H](c2ccccc2)C1` [Compound 64], the inhibition at 10 µM in test [1] (setting [3]) came to 100%. The inhibition at 25 µM in test [2] was less than 1%.

For the compound `C=CC(=O)N1Cc2ccc(Br)cc2[C@@H](c2ccc(Cl)cc2)C1` [Compound 65], in test [1], the “SUMO E1 percent inhibition of adduct formation” value was found to be 25 uM 60 min 10%. Further, the inhibition at 25 µM in test [2] is less than 1%.

On to `C=CC(=O)N1Cc2ccc(Br)cc2[C@@H](c2ccc(Cl)cc2)C1` [Compound 66], for which the “SUMO E1 percent inhibition of adduct formation” value in test [1] was determined as 25 uM 60 min <1%. The “Atg7 percent inhibition of adduct formation” value in test [2] is 25 uM 60 min <1%.

As for `C=CC(=O)N1C[C@H](c2ccccc2)c2cc(Br)ccc2C1(C)C` [Compound 67], the inhibition at 25 µM in test [1] (setting [3]) and in test [2] was less than 1% throughout.

With `C=CC(=O)N1Cc2cccc(Br)c2[C@@H](c2ccccc2C)C1` [Compound 69], the inhibition at 10 µM in test [1] (setting [3]) was determined as 60%. Moreover, the inhibition at 25 µM in test [2] was less than 1%.

For `C=CC(=O)N1Cc2cc(Br)ccc2[C@@H](c2ccccc2OC)C1` [Compound 70], in test [1] (setting [3]), the inhibition at 10 µM was 60%. In addition, in test [2], the inhibition at 25 µM is less than 1%.

`C=CC(=O)N1Cc2cccc(Br)c2[C@@H](c2ccccc2OC)C1` [Compound 71]: the inhibition at 25 µM in test [1] (setting [3]) was 20%; in test [2], less than 1%.

As for `C=CC(=O)N1Cc2sc(Br)cc2[C@@H](c2ccccc2C)C1` [Compound 72], the inhibition at 10 µM in test [1] (setting [3]) is 100%. Moreover, the inhibition at 25 µM in test [2] was less than 1%.
